The text below walks through data of patent US20250171449A1, “TRYPTANTHRIN DERIVATIVES WITH THIOSEMICARBAZONE SUBSTITUTION AND USE THEREOF” (UNIVERZITA KARLOVA, priority 2022, published 2025).

A short description of experiment [1]: Interaction of tryptanthrin derivatives with transition metal ions (UV/Vis spectroscopy). It is filed as binding. The conditions noted are these: receptor 100 μM, ion 5000 μM. How it is done: First, the interaction of tryptanthrin derivatives 1 and 5 with metal ions was studied using UV/Vis spectroscopy. The receptor concentration was 100 μM and the ion concentration was 5000 μM.

Experiment [2] can be described thus: Binding constant with Fe^2+ ions by UV/Vis titration. On the procedure:
(§1) The association of tryptanthrin derivatives with ferrous and ferric ions was studied by UV/Vis spectroscopy in aqueous solution (water/DMSO, 99:1, v/v). […] Association constants (K) were calculated from absorbance changes (AA) in the spectral maximum of the derivative and in the spectral maximum of its complexes with Fe^2+/3+ ions by regression analysis. The concentration of tryptanthrin derivatives was 100 μM. The concentration of Fe^2+ and Fe^3+ ions fluctuated in the range of 0-5 mM. UV/Vis spectra were measured with a Shimadzu spectrophotometer in the range 220-900 nm with a step of 1 nm in a 1 cm plastic cuvette at a scanning speed of 300 nm.min^-1. The effect of different concentrations of Fe ions on the absorbance of substance 1 (PAA-TSC) is shown in FIGS. 5 and 6; that for substance 5 […]-TSC) in FIGS. 7 and 8.

In experiment [3] the target is DNA from salmon sperm. The experiment is described as follows: Interaction with DNA by UV/Vis titration. It is filed as binding.
In experiment [4] the target is RNA. Put plainly: Interaction with RNA by UV/Vis titration. It is filed as binding.
Experiment [5] has as its system SARS-COV-2. Put plainly: Antiviral effect: SARS-COV-2 RNA production in infected Vero cells (RT-qPCR of E-gene). Format: cell-based. The conditions noted are these: Vero in vitro model; 0-10 μM; 24 and 48 hours. How it is done:
The cells in question (Vero cell line from African green monkey kidney; 1.5×10^5 cells per well) were infected with a SARS-COV-2 isolate provided by the Bioconservation Section of Techonin. The infectious inoculum contained 2.38×10^7 copies of the SARS-COV-2 E-gene. After 1 h inoculation, cells were supplemented with 1 ml of Dulbecco's modified Eagle's medium containing 2% fetal bovine serum (2% FBS-DMEM) and increasing concentrations (0-10 μM) of tryptanthrin derivatives 1 (PAA-TSC) and 5 (T8H-TSC), resp. After 24 and 48 hours of incubation, the growth of SARS-COV-2 was characterized in an aliquot of the culture supernatant by one-step RT-qPCR.
Viral RNA was isolated from 200 μl culture supernatant using magnetic beads. SARS-CoV-2 RNA was quantified by amplifying the E-gene of SARS-COV-2 (Generi Biotech) using the SensiFast Probe One-Step Kit (BioLine) and Light Cycler 480 II (Roche) using absolute quantification and calibration curve.

Experiment [6] in a line: Binding constant with Fe^3+ ions by UV/Vis titration. On the procedure:
as §1

The mark [7] stands for this setting: stoichiometry (ion:ligand) 1:1, water/DMSO 99:1, derivative 100 μM.
Where [8] appears, read: stoichiometry (NK:ligand) 1:2, phosphate buffer pH 7.00.

With `NC(=S)NN=C1c2ccccc2-n2c1nc1ccccc1c2=O` [derivative 5], the “absorbance changes after addition of metal ions (selectivity for Fe^2+/Fe^3+)” value in experiment [1] is “significant absorbance changes were observed only in the case of ferrous and ferric ions”. The “Log (K) association constant” value was determined as 4.9 in experiment [2] (setting [7]); 7.1 in experiment [2] (stoichiometry (ion:ligand) 2:1, water/DMSO 99:1, derivative 100 μM); 6.0 in experiment [3] (setting [8]); 7.3 in experiment [4] (setting [8]). In experiment [5], the “inhibition of virus particle / CoV-2 RNA production” value was “inhibition of viral particle production”.

As for `CC(CC1(O)c2ccccc2-n2c1nc1ccccc1c2=O)=NNC(N)=S` (mixture of isomers) [derivative 1], the “Log (K) association constant” value in experiment [6] (setting [7]) is 6.0; in experiment [6] (stoichiometry (ion:ligand) 1:2, water/DMSO 99:1, derivative 100 μM) it was 10.2; in experiment [2] (setting [7]) it was 1.5; in experiment [3] (stoichiometry (NK:ligand) 1:1, phosphate buffer pH 7.00), 7.4; in experiment [4] (stoichiometry (NK:ligand) 2:1, phosphate buffer pH 7.00), 8.7. Also, the “absorbance changes after addition of metal ions (selectivity for Fe^2+/Fe^3+)” value in experiment [1] is “significant absorbance changes were observed only in the case of ferrous and ferric ions”. Moreover, the “inhibition of virus particle / CoV-2 RNA production” value in experiment [5] is given as “inhibition of virus particle production”.
